Test results from patent US20250197428A1, “INHIBITORS OF KIF18A AND USES THEREOF” (ACCENT THERAPEUTICS, INC., priority 2022, published 2025).
pIC50: −log10 of the molar value. Where two headings read alike, the source gives them in different places.

Columns and labels:
KIF18A = KIF18A (Homo sapiens (Human), UniProt Q8NI77); assay: KIF18A Biochemical Assay (ATPase, ADP-Glo)
OVCAR-3 cells = assay: In vitro anti-proliferative activity assay in cancer cell line OVCAR-3 (CellTiter-Glo, 4- or 7-day); format: cell-based; conditions: read-out: OVCAR-3 cellular antiproliferation assay IC50
[1] = Caco-2 permeation assay, bidirectional permeability; format: in vitro ADME; conditions: human, Caco-2, pH 7.4, 5 μM, Papp(B-A)/Papp(A-B)
Description: (§1) 1. Caco-2 Permeation Assay: Evaluation of the Bidirectional Permeabilities of Compounds.
(§2) Samples were analyzed through LC/MS/MS for estimating the apparent permeability coefficients (Papp) of compounds across Caco-2 cell monolayers. Caco-2 cells (American Type Culture Collection) were incubated and seeded onto HTS Transwell-96 Well Permeable Supports (Corning Corporation) for 14 days using a cell medium consisting of Dulbecco's Modified Eagle's Medium (DMEM) with high glucose and L-glutamine supplemented with 10% FBS, 1× penicillin-streptomycin mixture and 1×non-essential amino acids (NEAA). Cell monolayer integrity was measured using an automated tissue resistance measuring system (World Precision Instruments). Stock solutions of compounds and control compounds in DMSO were diluted with HBSS (10 mM HEPES, pH 7.4) to reach a final concentration of 5 μM with a final concentration of DMSO <0.1%. HBSS was then removed after 30 minutes of preincubation, and 75 μL of test compound was added to the apical compartment of the Transwell insert. The basolateral compartment was filled with 235 μL of HBSS (10 mM HEPES, pH 7.4) containing 2% BSA. Rate of drug transport in the basolateral to apical direction was obtained by adding 235 μL of test compound to the receiver plate wells (basolateral compartment) and filling with 75 μL of HBSS (10 mM HEPES, pH 7.4) containing 2% BSA. Time 0 samples were prepared by transferring 25 μL of 5 μM working solution to wells of the 96-deepwell plate containing 25 μL HBSS (10 mM HEPES and 2% BSA, pH 7.4), followed by the addition 200 μL of cold methanol containing appropriate internal standards (100 nM alprazolam, 200 nM labetalol, 200 nM caffeine and 200 nM diclofenac). After incubating at 37° C. for 2 h, 25 μL samples from donor sides (apical compartment) were transferred to a 96-well plate containing 25 μL HBSS (10 mM HEPES and 2% BSA, pH 7.4). 25 μL samples from receiver sides (basolateral compartment) were removed and transferred to a new plate containing 25 μL HBSS (10 mM HEPES, pH 7.4). 200 μL of cold methanol containing internal standards (100 nM alprazolam, 200 nM labetalol, 200 nM caffeine and 200 nM diclofenac) was added to terminate the reaction. Samples were vortexed for 5 minutes and then centrifuged at 3,220 g for 40 minutes. An aliquot of 100 μL of the supernatant is mixed with 100 μL of ultra-pure water for LC-MS/MS analysis. All incubations are performed in duplicate. Solutions were discarded from the transwell plate. 100 μL Lucifer Yellow solution (100 μM in HBSS) was added to each well of transwell insert and 300 μL of HBSS to each well of receiver. After incubating at 37° C. for 30 minutes, 80 μL was aliquotted from each well of apical and basolateral sides to a solid black plate. The plate was then read with Tecan Infinite™ M 200 (Excitation/Emission wavelength […]).
(§3) All calculations were carried out using Microsoft Excel. Peak areas were determined from extracted ion chromatograms. The leakage of Lucifer Yellow, in unit of percentage (%), can be calculated using the following equation: […]
(§4) LY leakage of <1% is acceptable to indicate the well-qualified Caco-2 monolayers. The apparent permeability coefficient (Papp), in units of centimeter per second, can be calculated for Caco-2 drug transport assays using the following equation: […]
(§5) Where VA is the volume (in mL) in the receiver well (0.235 mL for Ap→Bl flux and 0.075 mL for Bl→Ap flux), Area is the surface area of the membrane (0.143 cm^2 for HTS Transwell-96 Well Permeable Supports), and time is the total transport time in seconds. The efflux ratio can be determined using the following equation: […]
(§6) Where Papp (B-A) indicates the apparent permeability coefficient in basolateral to apical direction, and Papp (A-B) indicates the apparent permeability coefficient in apical to basolateral direction.
(§7) The recovery can be determined using the following equation: […]

[2] = system: human megakaryocyte (CFU-MK) progenitors from human bone marrow mononuclear cells; assay: Human megakaryocyte progenitor colony formation assay (CFU-MK); format: cell-based; conditions: 336 h, read-out: Free-fraction adjusted CFU-MK IC50
[3] = In vivo pharmacokinetic evaluation in mouse; parameters: species or system female balb/c nude mice; conditions: for IV Clearance / Vd: 3 mg/kg IV; for Vd / Cmax / half-life: female, balb/c nude, plasma; for Vd: read-out: IV Vss; for Cmax / half-life: 10 mg/kg PO; for half-life: read-out: PO T1/2 (converted)
OVCAR-3 xenografts = assay: 28 day in vivo efficacy in OVCAR-3 xenografts; parameters: species or system female NOD SCID mice; conditions: oral
Description: Experiments were performed in female NOD SCID mice (GenPharmatech Co.). Animals were allowed to acclimate for 7 days before the study. The general health of the animals were evaluated by a veterinarian, and complete health checks were performed prior to the study. General procedures for animal care and housing were in accordance with the standard, Commission on Life Sciences, National Research Council, Standard Operating Procedures (SOPs) of Pharmaron, Inc. The mice were kept in laminar flow rooms at constant temperature and humidity with 3-5 mice in each cage. Animals were housed in polycarbonate cages which had dimensions of 300×180×150 mm^3 and in an environmentally monitored, well-ventilated room maintained at a temperature of 23±3° C. and a relative humidity of 40%-70%. Fluorescent lighting provided illumination approximately 12 hours per day. Animals had free access to irradiation sterilized dry granule food during the entire study period except for time periods specified by the protocol, as well as sterile drinking water in a bottle that was available ad libitum during the quarantine and study periods.
The OVCAR-3 (ATCC) tumor cell lines were maintained in vitro as a monolayer in RPMI 1640 medium supplemented with 20% heat inactivated FBS, at 37° C. in an atmosphere of 5% CO2 in air. The tumor cells were sub-cultured, not exceeding 4-5 passages, and cells growing in an exponential growth phase were harvested and counted for tumor inoculation. Each mouse was inoculated subcutaneously on the right flank with OVCAR-3 tumor cells (2×10^7) in 0.2 mL of RPMI-1640 with Matrigel (1:1) for model development.
Treatment was started when the mean tumor size reached approximately 150-200 mm^3, at which time the mice were randomized into treatment groups such that the average starting tumor size is similar for each treatment group. Animals were then treated with vehicle or indicated mg/kg (10-100) of compound at a given frequency (e.g., BID, QD, 4 days on treatment followed by 3 days off treatment) by oral gavage at a final dosing volume of 10 mL/kg.
The measurement of tumor size was conducted with a caliper and recorded twice per […] week. The tumor volume (TV) (mm^3) was estimated using the formula: TV=a×b^2/2, where “a” and “b” are long and short diameters of a tumor, respectively.
The TVs were used for calculation of the tumor growth inhibition and tumor growth delay. For the tumor growth inhibition (TGI), the value using the formula: […]
The “TVfinal” and “TVinitial” are the mean tumor volumes on the final day and initial day, respectively.
All statistical tests was conducted on GraphPad, and the level of significance was set at 5% or P<0.05. The group means and standard deviations were calculated for all measurement parameters. Two-way RM ANOVA followed by Tukeys post hoc comparisons of the means was applied among groups.
Additionally, after compound treatment, the animals were observed an additional 28 days without compound treatment.
The initial treatment period with Example 1 was 28 days, after which overall efficacy and tolerability were evaluated based on tumor volume and body weight changes observed during the treatment period (FIG. 2a and FIG. 2b).
The initial treatment period with Example 1 was 28 days, after which overall efficacy and tolerability were evaluated based on tumor volume and body weight changes observed during the treatment period (FIG. 3a and FIG. 3b).

[4] = Tolerability (body weight) in 28 day OVCAR-3 xenograft study; format: in vivo; conditions: all concentrations dosed, 28 day treatment
Caco-2 cell monolayers = assay: Caco-2 permeation assay, bidirectional permeability; format: in vitro ADME; conditions: 5 μM, 2 h, Papp(B-A)/Papp(A-B)
Description: as §1, §2, §3, §4, §5, §6, §7

[5] = Bone marrow concentration in 28 day OVCAR-3 xenograft study; format: in vivo, mice; conditions: NOD SCID, mouse, 30 mg/kg QD oral, 28 day study
Description: On Day 28, tissues were collected from animals. About 30-60 μL of whole blood was collected into tubes containing EDTA anticoagulant, and plasma was harvested by centrifugation at 4,000 g×5 min and stored at −80° C. until analysis. Plasma analysis followed the same protocol as for the Day 1 plasma analysis. Additionally, the femurs of the mice were cut and put in pre-weighed tubes. The bone marrow was harvested by centriguation at 8,000 g×15 min. Then, the total weight of both the bone marrow and the tube was recorded. The bone marrow was stored at −80° C. until analysis.
Samples were collected from animals 6 h after the last dose of compound and at 24 h after the last dose of compound.

[6] = Homo sapiens, OVCAR-3, 96 h, 4-day assay
[7] = 14 days culture, adjusted for binding to assay buffer
[8] = day 28, 100 mg/kg once daily for 4 days followed by 3 days of no dosing

Chain of KIF18A (Q8NI77 1-367): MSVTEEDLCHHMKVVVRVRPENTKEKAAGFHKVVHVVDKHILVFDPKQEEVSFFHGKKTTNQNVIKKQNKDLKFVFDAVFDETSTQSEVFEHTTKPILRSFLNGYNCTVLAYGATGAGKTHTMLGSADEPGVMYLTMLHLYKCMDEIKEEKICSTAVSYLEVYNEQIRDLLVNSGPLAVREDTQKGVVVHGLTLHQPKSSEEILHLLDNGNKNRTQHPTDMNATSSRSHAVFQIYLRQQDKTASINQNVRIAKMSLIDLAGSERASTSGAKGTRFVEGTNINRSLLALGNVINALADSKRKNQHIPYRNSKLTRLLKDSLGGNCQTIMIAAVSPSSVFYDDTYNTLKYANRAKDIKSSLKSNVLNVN
Chain of KIF18A (P02550 whole entry partner): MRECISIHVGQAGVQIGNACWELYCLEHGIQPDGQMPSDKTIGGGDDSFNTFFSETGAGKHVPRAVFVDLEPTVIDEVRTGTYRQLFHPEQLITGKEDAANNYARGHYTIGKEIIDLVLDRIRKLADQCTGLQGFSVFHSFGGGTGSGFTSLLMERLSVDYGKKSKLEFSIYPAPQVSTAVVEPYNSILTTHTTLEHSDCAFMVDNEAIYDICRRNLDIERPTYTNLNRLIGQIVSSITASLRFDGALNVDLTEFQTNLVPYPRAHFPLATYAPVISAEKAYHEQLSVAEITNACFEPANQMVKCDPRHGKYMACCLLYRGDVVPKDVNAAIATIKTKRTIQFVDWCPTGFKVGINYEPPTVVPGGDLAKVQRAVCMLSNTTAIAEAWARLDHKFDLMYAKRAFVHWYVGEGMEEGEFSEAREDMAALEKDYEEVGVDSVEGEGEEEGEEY
Chain of KIF18A (P02554 whole entry partner): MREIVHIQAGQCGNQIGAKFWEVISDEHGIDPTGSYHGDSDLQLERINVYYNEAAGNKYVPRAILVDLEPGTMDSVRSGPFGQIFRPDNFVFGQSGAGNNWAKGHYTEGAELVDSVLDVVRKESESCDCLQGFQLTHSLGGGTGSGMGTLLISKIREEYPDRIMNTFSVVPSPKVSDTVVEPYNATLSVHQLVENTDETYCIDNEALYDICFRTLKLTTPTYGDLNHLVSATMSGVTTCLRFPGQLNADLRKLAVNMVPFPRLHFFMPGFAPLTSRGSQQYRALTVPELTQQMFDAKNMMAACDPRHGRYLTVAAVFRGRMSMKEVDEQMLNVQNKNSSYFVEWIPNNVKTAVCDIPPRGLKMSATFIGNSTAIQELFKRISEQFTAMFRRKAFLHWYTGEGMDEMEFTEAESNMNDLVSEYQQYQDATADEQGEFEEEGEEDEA

| Structure (SMILES) | pIC50 (KIF18A) | pIC50 (OVCAR-3 cells; [6]) | efflux ratio at 2 h, 5 μM [1] | pIC50 [2, 7] | IV Clearance [3] | Vd [3] | further results |
| --- | --- | --- | --- | --- | --- | --- | --- |
| Cc1cc(NC(=O)c2ccc(NS(=O)(=O)CCO)cc2N2CC[Si](C)(C)CC2)nc(C2CCC(F)(F)CC2)n1 [Example 1, N-(2-(4,4-difluorocyclohexyl)-6-methylpyrimidin-4-yl)-2-(4,4-dimethyl-1,4-azasilinan-1-yl)-4-((2-hydroxyethyl)sulfonamido)benzamide] | > 7.00 | > 7.00 | < 10 | 7.77 | 3.6 mL/ming/kg | 2.7 L/kg | Cmax [3]: 2900 ng/mL; half-life [3]: 8.9 h; % T/C (OVCAR-3 xenografts; [8]): −2%; % TGI (OVCAR-3 xenografts; [8]): 102%; Tolerability based on body weight [4]: well tolerated |
| Cc1cc(NC(=O)c2ccc(NS(=O)(=O)CCO)cc2N2CC[C@]3(C(F)F)C[C@@H]3C2)nc(N2CCC(F)(F)CC2)n1 [Example 86] | > 7.00 |  |  |  |  |  | pIC50 (OVCAR-3 cells; 7-day assay): 6.30 to 7.00; Caco-2 assay efflux ratio (Caco-2 cell monolayers): ** (“**” means efflux ratio of <10) |
| Cc1cc(NC(=O)c2ccc(NS(=O)(=O)CCO)cc2N2CC[C@@]3(C)C[C@H]3C2)nc(N2CCC(F)(F)CC2)n1 [Example 36] | > 7.00 | 6.30 to 7.00 |  | 7.09 |  |  |  |
| C[Si]1(C)CCN(c2cc(NS(=O)(=O)CCO)c(F)cc2C(=O)Nc2cccc(N3CCC(F)(F)CC3)n2)CC1 [Example 14] | > 7.00 | > 7.00 |  |  |  |  | pIC50 [2]: 7.21 |
| Cc1cc(NC(=O)c2cc(F)c(NS(=O)(=O)CCO)cc2N2CC[Si](C)(C)CC2)nc(N2CCC(F)(F)CC2)c1 [Example 107] | > 7.00 |  | < 10 | 7.33 |  |  | pIC50 (OVCAR-3 cells; Homo sapiens, OVCAR-3, 168 h, 7-day assay): > 7.00 |
| Cc1cc(NC(=O)c2ccc(NS(=O)(=O)CCO)cc2N2CCC3(CC2)CC3)nc(N2CCC(F)(F)CC2)n1 [Compound A, reference compound] |  | > 7.00 |  |  | 4.1 mL/ming/kg | 2 L/kg | concentration at 6 h ([5]; read-out: Bone marrow concentration at 6 h post-last dose): 17000 ng/g; concentration at 24 h ([5]; read-out: Bone marrow concentration at 24 h post-last dose): 4100 ng/g |
| Cc1cc(NC(=O)c2ccc(NS(=O)(=O)CCO)cc2N2CC[Si](C)(C)CC2)nc(N2CCC(F)(F)CC2)n1 [Example 9, N-[2-(4,4-difluoropiperidin-1-yl)-6-methylpyrimidin-4-yl]-2-(4,4-dimethyl-1,4-azasilinan-1-yl)-4-(2-hydroxyethanesulfonamido)benzamide] | 6.30 to 7.00 | > 7.00 | < 10 |  | 1.7 mL/ming/kg | 2.5 L/kg | Cmax [3]: 3100 ng/mL; half-life [3]: 14.5 h; % T/C (OVCAR-3 xenografts; day 28, 100 mg/kg once daily): −4%; % TGI (OVCAR-3 xenografts; day 28, 100 mg/kg once daily): 104%; Tolerability based on body weight [4]: well tolerated |
